From ChEMBL document CHEMBL5604063, “ASAP - DENV-2 NS2B-NS3 protease fluorescence dose response” (2024)
“And” between values parts separate entries of the source, which are not always exact repeats. Identical values can stand only once.

Assays:
Genome polyprotein [1] = biological target: T1, Genome polyprotein (dengue virus type 2, UniProt P29990); format: functional, Thailand/16681/1984
Genome polyprotein [2] = biological target: T1, Genome polyprotein; format: functional, Thailand/16681/1984; remark: listed apart in the source

T1 sequence (P29990 1346-1475 limits assumed): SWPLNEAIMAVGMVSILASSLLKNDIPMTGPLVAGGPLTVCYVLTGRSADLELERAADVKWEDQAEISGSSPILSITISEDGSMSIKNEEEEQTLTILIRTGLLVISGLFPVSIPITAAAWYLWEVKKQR
T1 sequence (P29990 1476-2093 limits assumed): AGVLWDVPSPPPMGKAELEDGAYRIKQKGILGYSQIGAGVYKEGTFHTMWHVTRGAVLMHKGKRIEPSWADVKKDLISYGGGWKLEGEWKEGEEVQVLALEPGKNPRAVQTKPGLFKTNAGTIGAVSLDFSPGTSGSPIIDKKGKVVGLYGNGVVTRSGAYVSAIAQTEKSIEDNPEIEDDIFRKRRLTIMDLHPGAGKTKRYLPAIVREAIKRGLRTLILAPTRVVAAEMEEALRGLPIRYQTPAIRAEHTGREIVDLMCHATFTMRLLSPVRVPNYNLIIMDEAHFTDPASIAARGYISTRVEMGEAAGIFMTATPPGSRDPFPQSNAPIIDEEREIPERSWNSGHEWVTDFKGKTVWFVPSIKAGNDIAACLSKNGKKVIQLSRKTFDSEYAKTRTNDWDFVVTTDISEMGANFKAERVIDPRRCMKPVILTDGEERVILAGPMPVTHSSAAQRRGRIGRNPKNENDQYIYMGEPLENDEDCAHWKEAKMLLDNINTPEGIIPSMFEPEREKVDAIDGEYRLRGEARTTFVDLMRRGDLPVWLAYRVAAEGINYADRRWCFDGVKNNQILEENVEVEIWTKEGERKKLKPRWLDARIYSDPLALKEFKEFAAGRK

| Compound | IC50 (Genome polyprotein [1]) | IC50 (Genome polyprotein [2]) |
| --- | --- | --- |
| CCn1c(=O)c(N2CC[C@H](CO)C2)nc2ccc(C(N)=O)cc21 | 81.7 µM | > 100 µM |
| O=C(Nc1cc(Cl)cc(C(=O)Nc2ccc3c(c2)C[C@H](O)C3)c1)OCc1ccccc1 | > 99.5 µM | > 100 µM |
| O=C(Nc1cc(Cl)cc(C(=O)NCCc2nnn[nH]2)c1)OCc1ccccc1 | > 99.5 µM | > 100 µM |
| N[C@H]1Cc2ccc(NC(=O)c3cc(Cl)cc(NC(=O)OCc4ccccc4)c3)cc2C1 | 33.3 µM | 64.2 µM |
| N#Cc1ccc(CN)cc1NC(=O)c1cc(Cl)cc(NC(=O)OCc2ccccc2)c1 | > 99.5 µM | > 100 µM |
| Cc1nc(-c2ccc(Cl)cc2)sc1C(=O)Nc1cccc(CN)c1 | > 99.5 µM | > 100 µM |
| CC[C@H](Cc1nnn[nH]1)c1ccc(NC(=O)c2cc(Cl)cc(SC)c2)cc1 | 67.2 µM | 40.6 µM |
| CCn1c(=O)c(N2CC[C@H](CO)C2)nc2cc(C(N)=O)ccc21 | > 99.5 µM | > 100 µM |
| O=C(Nc1cc(Cl)cc(C(=O)Nc2ccc(S(=O)(=O)N3CCNCC3)cc2)c1)OCc1ccccc1 | > 99.5 µM | > 100 µM |
| Cc1c(C(=O)Nc2cccc(CN)c2)cc(C2CC2)n1C | > 99.5 µM | > 100 µM |
| O=C(Nc1cc(Cl)cc(C(=O)Nc2ccc3c(c2)OCO3)c1)OCc1ccccc1 | > 99.5 µM | > 100 µM |
| CCn1c(=O)c(N2CC[C@H](CO)C2)nc2ccc(C(=O)NS(C)(=O)=O)cc21 | > 99.5 µM | > 100 µM |
| Cc1c(C(=O)Nc2cccc([C@H]3CCNC3)c2)cc(C2CC2)n1C | > 99.5 µM | > 100 µM |
| Cc1c(C(=O)Nc2cccc(CN)c2)cc(C(C)C)n1C | > 99.5 µM | > 100 µM |
| Cc1c(C(=O)Nc2cccc(CCN)c2)cc(C2CC2)n1C | > 99.5 µM | > 100 µM |
| O=C(Nc1cc(Cl)cc(C(=O)Nc2cccc(-c3cn[nH]n3)c2)c1)OCc1ccccc1 | 55.7 µM | > 100 µM |
| CCc1cc(C(=O)Nc2cccc(CN)c2)sc1C | > 99.5 µM | > 100 µM |
| Cc1ccc(NC(=O)c2cc(C3CC3)n(C)c2C)cc1CN | > 99.5 µM | > 100 µM |
| Cc1onc(C(=O)Nc2cccc(CN)c2)c1COc1cccc(F)c1 | > 99.5 µM | > 100 µM |
| NCc1ccc(C#CCO)c(NC(=O)c2cc(Cl)cc(NC(=O)OCc3ccccc3)c2)c1 | 38 µM | > 100 µM |
| CC[C@H](Cc1nnn[nH]1)c1ccc(NC(=O)c2cc(Cl)cc3[nH]ncc23)cc1 | > 99.5 µM | > 100 µM |

| Compound | IC50 (Genome polyprotein [1]) | IC50 (Genome polyprotein [2]) |
| --- | --- | --- |
| Cc1nn(CCO)c(C(F)F)c1C(=O)Nc1cccc(CN)c1 | > 99.5 µM | > 100 µM |
| CCc1nc(C(=O)Nc2cccc(CN)c2)nn1-c1c(Cl)cccc1Cl | > 99.5 µM | > 100 µM |
| NCc1cccc(NC(=O)c2c(C(F)(F)F)nc3n2CCCC3)c1 | > 99.5 µM | > 100 µM |
| N#Cc1cc(Cl)cc(C(=O)Nc2cccc(-n3nn[nH]c3=O)c2)c1 | > 99.5 µM | > 100 µM |
| Cn1nnnc1-c1cccc(NC(=O)c2cc(Cl)cc(NC(=O)OCc3ccccc3)c2)c1 | > 99.5 µM | > 100 µM |
| O=C1Cc2cc(NC(=O)c3cc(Cl)cc(NC(=O)OCc4ccccc4)c3)ccc2N1 | > 99.5 µM | > 100 µM |
| O=C(Nc1cc(Cl)cc(C(=O)Nc2ccc(OC3CNC3)cc2)c1)OCc1ccccc1 | 64.2 µM | > 100 µM |
| CSc1cc(Cl)cc(C(=O)Nc2cccc(-n3nn[nH]c3=O)c2)c1 | > 99.5 µM | 78.2 µM |
| Cc1nc(N2CCOCC2)sc1CC(=O)Nc1cccc(CN)c1 | > 99.5 µM | > 100 µM |
| NCCCCc1ccc(NC(=O)c2cc(Cl)cc(NC(=O)OCc3ccccc3)c2)cc1 | 11.8 µM and 19.5 µM | 33.2 µM |
| CS(=O)(=O)c1ccc(CN)cc1NC(=O)c1cc(Cl)cc(NC(=O)OCc2ccccc2)c1 | > 99.5 µM | > 100 µM |
| O=C(O)CCc1ccc(NC(=O)c2cc(Cl)cc(NC(=O)OCc3ccccc3)c2)cc1 | 42.8 µM | 17.7 µM |
| CC(C)c1occ(C(F)(F)F)c1C(=O)Nc1cccc(CN)c1 | > 99.5 µM | > 100 µM |
| Nc1cccc(NC(=O)c2cc(Cl)cc(NC(=O)OCc3ccccc3)c2)n1 | > 99.5 µM | > 100 µM |
| NCc1nc(-c2ccc(NC(=O)c3cc(Cl)cc(NC(=O)OCc4ccccc4)c3)cc2)n[nH]1 | 48.2 µM | > 100 µM |
| NCc1cccc(NC(=O)[C@H]2CC(=O)Nc3ccc(Br)cc32)c1 | > 99.5 µM | > 100 µM |
| O=C(Nc1cc(Cl)cc(C(=O)NCCCc2nnn[nH]2)c1)OCc1ccccc1 | > 99.5 µM | > 100 µM |
| O=C(Nc1cc(Cl)cc(C(=O)Nc2ccc(-n3nn[nH]c3=O)cc2)c1)OCc1ccccc1 | 13.3 µM and 14.1 µM | 7.45 µM and 7.74 µM |
| CC(C)[C@H](NC(=O)c1cc(Cl)cc(NC(=O)OCc2ccccc2)c1)c1nn[nH]n1 | > 99.5 µM | 61.3 µM and 41.1 µM and 39.5 µM and 56.3 µM and 58.4 µM |
| CC[C@H](Cc1nnn[nH]1)c1ccc(NC(=O)c2cc(Cl)cc(C#N)c2)cc1 | > 99.5 µM | > 100 µM |
| Cc1cc(CN)cc(NC(=O)c2cc(C3CC3)n(C)c2C)c1 | > 99.5 µM | > 100 µM |
